Measurements reported in the supplement of paper PMC10307832.

Assays:
Assay in all cases: relative viability (nuclei count vs DMSO), 5 days (fraction); higher = more cells survive
Avagacestat + Navitoclax = compound: NC(=O)[C@@H](CCC(F)(F)F)N(Cc1ccc(-c2ncon2)cc1F)S(=O)(=O)c1ccc(Cl)cc1 [Avagacestat] + CC1(C)CCC(c2ccc(Cl)cc2)=C(CN2CCN(c3ccc(C(=O)NS(=O)(=O)c4ccc(N[C@H](CCN5CCOCC5)CSc5ccccc5)c(S(=O)(=O)C(F)(F)F)c4)cc3)CC2)C1 [Navitoclax] (partner 0.5 µM)
How it was run: (§1)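 Lung cancer cell lines were pin-tool dosed in 1536-well plates on the day after seeding, with either a lone drug or a fixed anchor-drug dose plus five library-drug doses (not always all listed) in √10 steps. Nuclei were counted on 4× images after 5 days. Relative viability is the ratio of treated-well to vehicle-well nuclei counts, with each value a median of duplicate plates.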

Avagacestat + Luminespib = compound: NC(=O)[C@@H](CCC(F)(F)F)N(Cc1ccc(-c2ncon2)cc1F)S(=O)(=O)c1ccc(Cl)cc1 [Avagacestat] + CCNC(=O)c1noc(-c2cc(C(C)C)c(O)cc2O)c1-c1ccc(CN2CCOCC2)cc1 [Luminespib] (partner 0.01 µM)
How it was run: as §1

Avagacestat + Foretinib = compound: NC(=O)[C@@H](CCC(F)(F)F)N(Cc1ccc(-c2ncon2)cc1F)S(=O)(=O)c1ccc(Cl)cc1 [Avagacestat] + COc1cc2c(Oc3ccc(NC(=O)C4(C(=O)Nc5ccc(F)cc5)CC4)cc3F)ccnc2cc1OCCCN1CCOCC1 [Foretinib] (partner 0.25 µM)
How it was run: as §1

Avagacestat + Linsitinib = compound: NC(=O)[C@@H](CCC(F)(F)F)N(Cc1ccc(-c2ncon2)cc1F)S(=O)(=O)c1ccc(Cl)cc1 [Avagacestat] + C[C@]1(O)C[C@@H](c2nc(-c3ccc4ccc(-c5ccccc5)nc4c3)c3c(N)nccn32)C1 [Linsitinib] (partner 1 µM)
How it was run: as §1

| Cell Line | relative viability (Avagacestat + Navitoclax; first compound 0.08 µM) | relative viability (Avagacestat + Navitoclax; first compound 0.253 µM) | relative viability (Avagacestat + Navitoclax; first compound 0.8 µM) | relative viability (Avagacestat + Navitoclax; first compound 2.53 µM) | relative viability (Avagacestat + Navitoclax; first compound 8 µM) | relative viability (Avagacestat + Luminespib; first compound 0.08 µM) | relative viability (Avagacestat + Luminespib; first compound 0.253 µM) | relative viability (Avagacestat + Luminespib; first compound 0.8 µM) | relative viability (Avagacestat + Luminespib; first compound 2.53 µM) | relative viability (Avagacestat + Luminespib; first compound 8 µM) | relative viability (Avagacestat + Foretinib; first compound 0.08 µM) | relative viability (Avagacestat + Foretinib; first compound 0.253 µM) | relative viability (Avagacestat + Foretinib; first compound 0.8 µM) | relative viability (Avagacestat + Foretinib; first compound 2.53 µM) | relative viability (Avagacestat + Foretinib; first compound 8 µM) | relative viability (Avagacestat + Linsitinib; first compound 0.08 µM) | relative viability (Avagacestat + Linsitinib; first compound 0.253 µM) | relative viability (Avagacestat + Linsitinib; first compound 0.8 µM) | relative viability (Avagacestat + Linsitinib; first compound 2.53 µM) | relative viability (Avagacestat + Linsitinib; first compound 8 µM) |
| --- | --- | --- | --- | --- | --- | --- | --- | --- | --- | --- | --- | --- | --- | --- | --- | --- | --- | --- | --- | --- |
| NCI-H2405 | 0.864 | 0.937 | 0.779 | 0.638 | 0.797 | 0.638 | 0.856 | 0.58 | 0.665 | 0.466 | 1.04 | 1.03 | 0.998 | 0.938 | 0.927 | 0.873 | 0.852 | 1 | 0.627 | 0.737 |
| NCI-H3122 | 0.95 | 1.09 | 1.08 | 1.01 | 1.03 | 0.0934 | 0.101 | 0.074 | 0.0983 | 0.11 | 0.945 | 1 | 0.992 | 0.964 | 0.991 | 1.05 | 1.02 | 0.989 | 1.01 | 1 |
| PC-3 [JPC-3] | 0.908 | 0.885 | 0.864 | 0.821 | 0.761 | 0.677 | 0.81 | 0.785 | 0.671 | 0.628 | 1.19 | 1.09 | 1.15 | 1.02 | 1.01 | 1.01 | 1.02 | 0.976 | 1.04 | 0.967 |
| PC-14 | 1.19 | 1.19 | 1.12 | 0.97 | 0.899 | 0.151 | 0.162 | 0.162 |  | 0.176 | 1.1 | 1.08 | 1.1 | 0.956 | 0.817 | 1.11 | 1.07 | 1.09 | 1 | 0.855 |
| RERF-LC-KJ | 1.11 | 0.878 | 0.874 | 0.982 | 1.1 | 1.72 | 1.39 | 1.36 | 1.35 | 1.13 | 0.987 | 1.07 | 0.993 | 0.859 | 0.842 | 0.896 | 0.981 | 0.92 | 0.848 | 0.761 |
| SK-LU-1 | 1.11 | 1.08 | 1 | 0.706 | 0.93 | 0.223 | 0.189 | 0.218 | 0.201 | 0.225 | 0.993 | 0.879 | 0.852 | 0.575 | 0.66 | 1.13 | 1.3 | 1.02 | 0.918 | 0.983 |
| SK-MES-1 | 1.32 | 1.29 | 1.27 | 1.2 | 1.27 | 0.863 | 0.865 | 0.724 | 0.616 | 0.788 | 0.92 | 0.808 | 1.03 | 0.666 | 0.619 | 1.07 | 1.15 | 1.11 | 1.06 | 0.958 |
| SW 1573 | 1.3 | 0.97 | 0.989 | 1.04 | 0.974 | 0.341 | 0.257 | 0.218 | 0.196 | 0.214 | 0.917 | 0.866 | 0.88 | 0.867 | 1.02 | 0.894 | 0.876 | 0.756 | 0.771 | 0.699 |
| UMC-11 | 0.324 | 0.316 | 0.321 | 0.286 | 0.299 | 1.18 | 1.35 | 1.1 | 1.16 | 1.14 | 1.19 | 1.15 | 1.26 | 1.13 | 1.06 | 1.2 | 1.12 | 1.18 | 1.04 | 0.933 |
